These results are taken from patent US8916517B2, “Analogs of pituitary adenylate cyclase-activating polypeptide (PACAP) and methods for their use” (The Administrators of the Tulane Educational Fund, priority 2009, dated 2014).

Assay [1] concerns ischemia/reperfusion injury to the kidney. Nature of the assay: Serum creatinine after renal ischemia/reperfusion injury in mice. As to conditions: 20 micrograms i.p. 1, 24 and 48 h after start of reperfusion; 45 min renal artery clamping; 72 hours. In kind it is in vivo, male C57BL/6 mice. The protocol:
FIG. 6 is a graph showing the effects of PACAP38 and two novel PACAP analogs on serum creatinine levels in mice following ischemia/reperfusion injury to the kidney. The renal artery in male C57BL/6 mice was clamped bilaterally for 45 minutes in all mice except for the sham-operated mice. Twenty micrograms of PACAP38 or one of the PACAP analogs were given intraperitoneally 1 hour after the start of reperfusion and additional doses were given at 24 and 48 hours after the initial dose. The sham-operated group of mice was injected intraperitoneally with PACAP38 on the same schedule as the mice subjected to ischemia/reperfusion. The control group of mice was injected intraperitoneally with the same volume of saline as for the injections of PACAP38 on the same schedule. All of the mice were euthanized 24 hours after the final injection of saline, PACAP38 or one of the novel PACAP analogs. Each value represents the mean plus/minus the standard error of four determinations. **p<0.01 and *p<0.05 compared to the ischemia/reperfusion group treated with saline. I/R, ischemia/reperfusion; sham, sham-operated.

The subject of assay [2] is rat renal proximal tubule epithelial cells. Nature of the assay: Reduction of cisplatin-induced apoptotic cell death of renal proximal tubule epithelial cells (histone-associated DNA fragmentation). In kind it is cell-based. As to conditions: cisplatin 24 hours, comparable concentrations.
In assay [3] the test system is human myeloma cell line (MM.1 R). Briefly: Proliferation of dexamethasone-resistant myeloma cell line MM.1R (bromodeoxyuridine incorporation). In kind it is cell-based. As to conditions: FIG. 9. The protocol:
FIG. 9 is a graph showing the effects PACAP38, [Pip^3,Ala^14,17,Aib^16,28,Lys^34,D-Lys^38] PACAP38(SEQ ID NO: 6) and dexamethasone on the proliferation of light-chain immunoglobulin-secreting human myeloma cell line (MM.1 R) that was derived from a patient who was being treated for multiple myeloma with a dexamethasome-containing regimen. The light-chain immunoglobulin-secreting multiple myeloma cells were cultured in RPMI 1640 medium supplemented with 10% non-inactivated fetal bovine serum and 0.05mM 2-mercaptoethanol. The effects of dexamethasone, PACAP38 and the novel PACAP38 analog on cell proliferation were assessed by determining the incorporation of bromodeoxyuridine into DNA during cell division. Each value represents the mean plus/minus the standard error of four-six determination. The cell lines in FIGS. 8 and 9 were obtained from the same patient at different stages of the treatment (Greenstein et al., Exp Hematol 31 :271-282, 2003).

Assay [4] has as its system light-chain immunoglobulin-secreting human multiple myeloma cells. Briefly: Inhibition of proliferation of light-chain immunoglobulin-secreting human multiple myeloma cells (bromodeoxyuridine incorporation). In kind it is cell-based. As to conditions: inhibition of myeloma cell proliferation. Here is the method: FIG. 3 is a table listing the EC50 for the inhibitory effects of PACAP38, PACAP27, VIP, and eight novel PACAP analogs on the proliferation of light-chain immunoglobulin-secreting myeloma cells. The light-chain immunoglobulin-secreting human multiple myeloma cells were cultured in RPMI 1640 medium supplemented with 10% non-inactivated fetal bovine serum and 0.05 mM 2-mercaptoethanol. The effects of PACAP38, PACAP27, VIP, and the eight novel PACAP analogs on myeloma cell proliferation were assessed by determining incorporation of bromodeoxyuridine into DNA during cell division. The number of myeloma cells approximately doubled during the 24-hour incubation period in the absence of treatment with PACAP-like peptides. Five different concentrations, ranging from 10^-13 M to 10^-5 M, were tested for PACAP38, PACAP27, VIP, and each of the eight novel PACAP analogs. The EC50 was calculated from the concentration response curve using the software package Prism (Graph Pad, San Diego, CA). Each value represents the mean of four-six determinations per experiment. The EC50 for PACAP38 is based on the average of four separate experiments, while the EC50 for PACAP27 and [Pip^3,Aib ^16,28,Ala^17,Lys^34,D-LysIPACAP 38 (SEQ ID NO: 4) is based on the average of two separate experiments.
FIG. 4 is a graph showing a representative concentration response curve from a single experiment on the inhibitory effects PACAP38 and six PACAP38 analogs on the proliferation of light-chain immunoglobulin-secreting human myeloma cells. Each value represents the mean plus/minus the standard error of four-six determinations. Note that replacing pipecolic acid in position 3 of the novel analogs with either nipecotic acid or isonipecotic acid results in an analog with more than four orders of magnitude lower inhibitory potency.
The effects of PACAP38, PACAP27, VIP, and PACAP analogs on myeloma cell proliferation were assessed by determining incorporation bromodeoxyuridine into DNA during cell division. […]

The subject of assay [5] is human renal proximal tubule epithelial cells. Nature of the assay: Reduction of gentamicin-induced apoptotic cell death of human renal proximal tubule epithelial cells. As to conditions: gentamicin 24 hours. In kind it is cell-based. Here is the method:
The inhibitory effects of PACAP38 and the novel PACAP analog on apoptotic cell death was assessed by the quantitative determination of cytoplasmic histone-associated DNA-fragmentation (mono- and oligonucleosomes) after exposure to gentamicin for 24 hours. […] Each value represents the mean plus/minus the standard deviation of four determinations. **p<0.01 and *p<0.05 compared to the group treated only with gentamicin.

“Also recorded” adds a separate entry of the source. Non-standard residues stand in square brackets, D forms with d. No end group written: not given here. Pip = O=C(O)[C@@H]1CCCCN1; Aib = CC(C)(N)C(=O)O

In the case of “[Pip^3,Ala^15,17,Aib^16,28,Lys^34,D-Lys^38]PACAP38 (HS[Pip]GIFTDSYSRYRA[Aib]AAVKKYLAAVL[Aib]KRYKQKVKN[dK]-NH2; N-terminus assumed; SMILES CC[C@H](C)[C@H](NC(=O)CNC(=O)[C@@H]1CCCCN1C(=O)[C@H](CO)NC(=O)[C@@H](N)Cc1c[nH]cn1)C(=O)N[C@@H](Cc1ccccc1)C(=O)N[C@H](C(=O)N[C@@H](CC(=O)O)C(=O)N[C@@H](CO)C(=O)N[C@@H](Cc1ccc(O)cc1)C(=O)N[C@@H](CO)C(=O)N[C@@H](CCCNC(=N)N)C(=O)N[C@@H](Cc1ccc(O)cc1)C(=O)N[C@@H](CCCNC(=N)N)C(=O)N[C@@H](C)C(=O)NC(C)(C)C(=O)N[C@@H](C)C(=O)N[C@@H](C)C(=O)N[C@H](C(=O)N[C@@H](CCCCN)C(=O)N[C@@H](CCCCN)C(=O)N[C@@H](Cc1ccc(O)cc1)C(=O)N[C@@H](CC(C)C)C(=O)N[C@@H](C)C(=O)N[C@@H](C)C(=O)N[C@H](C(=O)N[C@@H](CC(C)C)C(=O)NC(C)(C)C(=O)N[C@@H](CCCCN)C(=O)N[C@@H](CCCNC(=N)N)C(=O)N[C@@H](Cc1ccc(O)cc1)C(=O)N[C@@H](CCCCN)C(=O)N[C@@H](CCC(N)=O)C(=O)N[C@@H](CCCCN)C(=O)N[C@H](C(=O)N[C@@H](CCCCN)C(=O)N[C@@H](CC(N)=O)C(=O)N[C@H](CCCCN)C(N)=O)C(C)C)C(C)C)C(C)C)[C@@H](C)O) [SEQ ID NO:5]”, the “reversal of the rise in serum creatinine caused by ischemia/reperfusion” value in assay [1] is recorded as “almost completely reversed”. Moreover, in assay [2], the “cytoprotective potency compared with PACAP38” value is given as “either as effective or more effective than PACAP38”.

Regarding “[Pip^3,Aib^16,28,Ala^17,Lys^34,D-Lys^38]PACAP38 (HS[Pip]GIFTDSYSRYRK[Aib]AAVKKYLAAVL[Aib]KRYKQKVKN[dK]-NH2; N-terminus assumed; SMILES CC[C@H](C)[C@H](NC(=O)CNC(=O)[C@@H]1CCCCN1C(=O)[C@H](CO)NC(=O)[C@@H](N)Cc1c[nH]cn1)C(=O)N[C@@H](Cc1ccccc1)C(=O)N[C@H](C(=O)N[C@@H](CC(=O)O)C(=O)N[C@@H](CO)C(=O)N[C@@H](Cc1ccc(O)cc1)C(=O)N[C@@H](CO)C(=O)N[C@@H](CCCNC(=N)N)C(=O)N[C@@H](Cc1ccc(O)cc1)C(=O)N[C@@H](CCCNC(=N)N)C(=O)N[C@@H](CCCCN)C(=O)NC(C)(C)C(=O)N[C@@H](C)C(=O)N[C@@H](C)C(=O)N[C@H](C(=O)N[C@@H](CCCCN)C(=O)N[C@@H](CCCCN)C(=O)N[C@@H](Cc1ccc(O)cc1)C(=O)N[C@@H](CC(C)C)C(=O)N[C@@H](C)C(=O)N[C@@H](C)C(=O)N[C@H](C(=O)N[C@@H](CC(C)C)C(=O)NC(C)(C)C(=O)N[C@@H](CCCCN)C(=O)N[C@@H](CCCNC(=N)N)C(=O)N[C@@H](Cc1ccc(O)cc1)C(=O)N[C@@H](CCCCN)C(=O)N[C@@H](CCC(N)=O)C(=O)N[C@@H](CCCCN)C(=O)N[C@H](C(=O)N[C@@H](CCCCN)C(=O)N[C@@H](CC(N)=O)C(=O)N[C@H](CCCCN)C(N)=O)C(C)C)C(C)C)C(C)C)[C@@H](C)O) [SEQ ID NO:4]”, the “cytoprotective potency compared with PACAP38” value in assay [2] is “either as effective or more effective than PACAP38”.

As for “[Pip^3,Ala^14,17,Aib^16,28,Lys^34,D-Lys^38]PACAP38 (HS[Pip]GIFTDSYSRYAK[Aib]AAVKKYLAAVL[Aib]KRYKQKVKN[dK]-NH2; N-terminus assumed; SMILES CC[C@H](C)[C@H](NC(=O)CNC(=O)[C@@H]1CCCCN1C(=O)[C@H](CO)NC(=O)[C@@H](N)Cc1c[nH]cn1)C(=O)N[C@@H](Cc1ccccc1)C(=O)N[C@H](C(=O)N[C@@H](CC(=O)O)C(=O)N[C@@H](CO)C(=O)N[C@@H](Cc1ccc(O)cc1)C(=O)N[C@@H](CO)C(=O)N[C@@H](CCCNC(=N)N)C(=O)N[C@@H](Cc1ccc(O)cc1)C(=O)N[C@@H](C)C(=O)N[C@@H](CCCCN)C(=O)NC(C)(C)C(=O)N[C@@H](C)C(=O)N[C@@H](C)C(=O)N[C@H](C(=O)N[C@@H](CCCCN)C(=O)N[C@@H](CCCCN)C(=O)N[C@@H](Cc1ccc(O)cc1)C(=O)N[C@@H](CC(C)C)C(=O)N[C@@H](C)C(=O)N[C@@H](C)C(=O)N[C@H](C(=O)N[C@@H](CC(C)C)C(=O)NC(C)(C)C(=O)N[C@@H](CCCCN)C(=O)N[C@@H](CCCNC(=N)N)C(=O)N[C@@H](Cc1ccc(O)cc1)C(=O)N[C@@H](CCCCN)C(=O)N[C@@H](CCC(N)=O)C(=O)N[C@@H](CCCCN)C(=O)N[C@H](C(=O)N[C@@H](CCCCN)C(=O)N[C@@H](CC(N)=O)C(=O)N[C@H](CCCCN)C(N)=O)C(C)C)C(C)C)C(C)C)[C@@H](C)O) [SEQ ID NO:6]”, the “reversal of the rise in serum creatinine caused by ischemia/reperfusion” value in assay [1] is given as “almost completely reversed”. For the same substance, the “cytoprotective potency compared with PACAP38” value in assay [2] was “either as effective or more effective than PACAP38”. Further, the “sensitivity of cell proliferation” value in assay [3] is “still sensitive”.

Turning to PACAP27, the “potency compared with PACAP38 or the novel PACAP38 analogs” value in assay [4] is “significantly less potent”.

On to “[Pip^3]PACAP38 (HS[Pip]GIFTDSYSRYRKQMAVKKYLAAVLGKRYKQRVKNK-NH2; N-terminus assumed; SMILES CC[C@H](C)[C@H](NC(=O)CNC(=O)[C@@H]1CCCCN1C(=O)[C@H](CO)NC(=O)[C@@H](N)Cc1c[nH]cn1)C(=O)N[C@@H](Cc1ccccc1)C(=O)N[C@H](C(=O)N[C@@H](CC(=O)O)C(=O)N[C@@H](CO)C(=O)N[C@@H](Cc1ccc(O)cc1)C(=O)N[C@@H](CO)C(=O)N[C@@H](CCCNC(=N)N)C(=O)N[C@@H](Cc1ccc(O)cc1)C(=O)N[C@@H](CCCNC(=N)N)C(=O)N[C@@H](CCCCN)C(=O)N[C@@H](CCC(N)=O)C(=O)N[C@@H](CCSC)C(=O)N[C@@H](C)C(=O)N[C@H](C(=O)N[C@@H](CCCCN)C(=O)N[C@@H](CCCCN)C(=O)N[C@@H](Cc1ccc(O)cc1)C(=O)N[C@@H](CC(C)C)C(=O)N[C@@H](C)C(=O)N[C@@H](C)C(=O)N[C@H](C(=O)N[C@@H](CC(C)C)C(=O)NCC(=O)N[C@@H](CCCCN)C(=O)N[C@@H](CCCNC(=N)N)C(=O)N[C@@H](Cc1ccc(O)cc1)C(=O)N[C@@H](CCCCN)C(=O)N[C@@H](CCC(N)=O)C(=O)N[C@@H](CCCNC(=N)N)C(=O)N[C@H](C(=O)N[C@@H](CCCCN)C(=O)N[C@@H](CC(N)=O)C(=O)N[C@@H](CCCCN)C(N)=O)C(C)C)C(C)C)C(C)C)[C@@H](C)O) [SEQ ID NO:12]”, for which the “cytoprotective potency, PACAP38 versus [Pip^3]PACAP38” value in assay [5] is recorded as “less potent than PACAP38”. The “reduction in gentamicin-induced apoptotic cell death” value in assay [5] (various concentrations) is “significant dose-dependent reduction; also recorded: dose-dependent inhibition”.
